According to US20230172906A1, “METHOD TO TREAT VIRAL INFECTION INDUCED BY A CORONAVIRUS” (priority 2020, published 2023):

Assays:
[1] = system: SARS-CoV-2 pseudovirus entry into HEK293 cells expressing human ACE2; assay type: cell-based
RBD/ACE2 interaction = molecular target: T1, RBD/ACE2 interaction (Homo sapiens, UniProt Q9BYF1); assay type: binding
T1 construct: expressed in transfected cells; host or cells: HEK293

HEK293 cells = conditions: melatonin at 10 and 100 μM, FIG. 1B

T1 sequence (Q9BYF1 18-805): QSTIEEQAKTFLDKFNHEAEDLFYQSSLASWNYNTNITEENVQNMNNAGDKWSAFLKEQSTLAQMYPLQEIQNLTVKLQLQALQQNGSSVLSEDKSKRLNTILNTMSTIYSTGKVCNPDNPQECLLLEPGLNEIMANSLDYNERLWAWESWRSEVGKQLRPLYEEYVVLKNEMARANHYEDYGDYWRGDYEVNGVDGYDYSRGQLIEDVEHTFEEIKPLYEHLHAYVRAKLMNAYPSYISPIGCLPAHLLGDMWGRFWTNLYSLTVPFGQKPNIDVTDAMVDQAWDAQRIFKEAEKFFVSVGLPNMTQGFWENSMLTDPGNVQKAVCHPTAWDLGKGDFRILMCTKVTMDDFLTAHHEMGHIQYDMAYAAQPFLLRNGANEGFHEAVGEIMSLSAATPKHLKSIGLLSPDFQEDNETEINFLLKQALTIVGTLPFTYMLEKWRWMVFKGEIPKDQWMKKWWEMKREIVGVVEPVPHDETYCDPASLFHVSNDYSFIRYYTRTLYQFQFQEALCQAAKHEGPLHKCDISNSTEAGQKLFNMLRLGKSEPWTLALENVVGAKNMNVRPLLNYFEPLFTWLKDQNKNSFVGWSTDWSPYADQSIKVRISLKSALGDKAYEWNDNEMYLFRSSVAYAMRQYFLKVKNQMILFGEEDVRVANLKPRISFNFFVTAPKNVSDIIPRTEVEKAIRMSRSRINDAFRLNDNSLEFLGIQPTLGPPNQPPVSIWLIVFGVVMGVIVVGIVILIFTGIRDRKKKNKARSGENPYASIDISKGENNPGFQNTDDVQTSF

For `COc1ccc2[nH]cc(CCNC(C)=O)c2c1` [melatonin, Melatonin], the “infection by the SARS-CoV-2 pseudovirus” value [1] was “inhibited”, the “binding of RBD-d2 of the SARS-CoV-2 Spike protein to Lumi4-Tb-labeled SNAP-tagged human ACE2” value (RBD/ACE2 interaction) was “inhibits” and the cell viability (HEK293 cells) was “without affecting cell viability”.
